According to patent US12139508B2, “Steroid derivative regulators, method for preparing the same, and uses thereof” (JIANGSU HANSOH PHARMACEUTICAL GROUP CO., LTD., priority 2018, dated 2024):
Like-named read-outs stand apart in the source and are kept apart here.

Columns and labels:
GABA-A receptor = assay: 35S-TBPS binding assay (GABAA receptor binding ability test); set-up: species or system Sprague-Dawley rat; conditions: rat cerebral cortex cell membrane, 5 μM GABA, 2 nM 35S-TBPS; read-out: 35S-TBPS bindng test: IC50 on inhibiting the TBPS binding activity
Experimental: 1.2 Experimental Procedures 1.2.1 Extraction of Cerebral Cortex Cell Membrane:
1. The cerebral cortex of male Sprague-Dawley rat was isolated.
2. A pre-chilled 0.32 M sucrose solution (one tablet of protease inhibitor was added per 100 ml) was added to the cerebral cortex (the volume of sucrose solution was 10 times the volume of the cerebral cortex). The mixture was crushed with a 50 mL glass tissue homogenizer in batches and mixed well.
3. The mixture was centrifuged at 1500 g, 4° C. for 10 minutes, and the supernatant was collected.
4. The mixture was centrifuged at 20000 g, 4° C. for 30 minutes, and the supernatant was discarded.
5. The precipitate was resuspended with the pre-chilled phosphate buffer saline (PBS) (one tablet of protease inhibitor was added per 100 ml). An average of 4 ml of PBS was added per rat, and the mixture was mixed well by a glass tissue homogenizer.
6. The mixture was centrifuged at 10000 g, 4° C. for 10 minutes, and the supernatant was discarded.
7. Steps 5 and 6 were repeated three times.
8. Finally, the precipitate was resuspended with 4 volumes of PBS. The resulting solution was dispensed, frozen in liquid nitrogen, and stored at −80° C.
9. The protein concentration was measured by the bicinchoninic acid (BCA) method.
1.2.2 ^35S-TBPS Binding Assay
1. 230 μL of PBS was added to each well of a well plate with 1.1 ml volume.
2. 60 μL of the cerebral cortex cell membrane (5 μg/μL) solution was added to each well, and the mixture was mixed well.
3. The test compound (3 μL per well) was added, and the plate was incubated at 25° C. for 5 minutes. The DMSO concentration was 1%. The initial compound concentration was 1 μM, and a 3-fold dilution in gradient was carried out to obtain a total of 8 gradients and 2 replicates. 1% DMSO was used as a negative control, and 10 μM P026-2 was used as a positive control.
4. GABA was added at a final concentration of 5 μM, and incubated at 25° C. for 5 minutes. 1 mM GABA solution was formulated, and 1.5 μL of the solution was added to each well.
5. ^35S-TBPS was added at a final concentration of 2 nM. The concentration of isotope mother solution was 9.7 μM. After dilution with PBS for 100 times, 6 μL of the diluted isotope solution was added to each well.
6. The plate was incubated at 4° C. for 20 hours.
7. The FilterMate GF/C plate was pre-treated with 0.5% PEI, and incubated at 4° C. for 1 hour.
8. The FilterMate GF/C plate was washed with Universal Harvester twice, 50 ml PBS each time.
9. The reaction solution was transferred to the GF/C plate, and each well was washed 4 times with 900 μL of PBS.
10. The washed GF/C plate was placed at 55° C. and dried for 10 minutes.
11. 40 μL of scintillation solution was added to each well, and the CPM value was read with TopCount.
1.2.3 Experimental Data Processing Method:
In the experiment, the CPM (counts per minute) value was read with TopCount. According to the readings of the High control (DMSO) and the Low control ([…] of the positive compound) experimental groups, the […] inhibition was calculated based on the following formula: % Inhibition=100×(CPMHigh control−CPMSample)/(CPMHigh control−CPMLow control)
The IC50 of the compound was calculated according to the following 4-parameter nonlinear logic formula: Y=Bottom+(Top−Bottom)/(1+10^((Log IC50−X)*Hill Slope)),
wherein: • X represents the log of compound concentration, • Y represents the 0 Inhibition.
The effect of the compound of the present invention on the TBPS binding activity was determined by the above test, and the measured IC50 values are shown in Table 1.

[1] = Pharmacokinetic assay in Balb/c mice (plasma and brain tissue); assay type: in vivo; conditions: mouse, po, 5 mg/kg p.o., male Balb/c mice; for AUC(0-t): read-out: Area under curve AUC0-t; for AUC(0-inf): read-out: Area under curve AUC0-∞; for half-life: read-out: Half-life t1/2 (converted); for MRT: read-out: Mean residence time MRT; for Tmax: read-out: Peak time tmax; for Cmax: read-out: Plasma concentration Cmax
Experimental: Balb/c mice were used as test animals. The pharmacokinetic behavior in mice (plasma and brain tissue) of the compounds of Examples 2, 3, 5, 6, 9, 13, 59, 60, 61, 63, 71-74, 81, 103, 130, 134, 135, 137, 138, 140, 141, 143, 145 and 146 orally administered at a dose of 5 mg/kg was studied.
Each group had 24 male Balb/c mice. After an overnight fast, Balb/c mice were administered p.o. with the test compound at an administration dose of 5 mg/kg and an administration volume of 10 mL/kg.
0.2 ml of blood was taken from the heart before administration and at 0, 0.5, 1, 2, 4, 6, 8 and 24 hours after administration. The samples were stored in EDTA-K2 tubes, and centrifuged for 6 minutes at 4° C., 6000 rpm to separate the plasma. The plasma samples were stored at −80° C. The mice were sacrificed with CO2, and the whole brain tissue was taken out, weighed, placed in a 2 mL centrifuge tube and stored at −80° C.
1) 160 μL of acetonitrile was added to 40 μL of the plasma sample for precipitation, and then the mixture was centrifuged for 5-20 minutes at 3500×g.
2) 90 μL of acetonitrile containing the internal standard (100 ng/mL) was added to 30 μL of the plasma and brain homogenate samples for precipitation, and then the mixture was centrifuged for 8 minutes at 13000 rpm.
3) 70 μL of the treated supernatant was taken and added to 70 μL of water, and mixed by vortex for 10 minutes. 20 μL of the mixture was taken to analyze the concentration of the test compound by LC/MS/MS. LC/MS/MS analysis instrument: AB Sciex API 4000 Qtrap.
• Liquid chromatography condition: Shimadzu LC-20AD pump. • Chromatographic column: Agilent ZORBAX™ XDB-C18 (50×2.1 mm, 3.5 μm) (note: Aglient ZORBAX™ is a kind of column used in the reverse HPLC); • Mobile phase: Eluent A was 0.10% formic acid in water, and Eluent B was acetonitrile. • Flow rate: 0.4 mL/min • Elution time: 0-4.0 minutes, the eluent is as follows:
The main parameters of pharmacokinetics were calculated by WinNonlin 6.1.

Work on `CC(=O)[C@H]1[C@H]2C[C@H]2[C@H]2[C@@H]3CC[C@@H]4C[C@](C)(O)CC[C@@H]4[C@H]3CC[C@@]21C` [Example 1, 1-((2R,4aS,4bR,6aS,7S,7aS,8aR,8bR,8cR,10aR)-2-Hydroxy-2,6a-dimethyloctadecahydrocyclopropa[4,5]cyclopenta[1,2-a]phenanthren-7-yl)ethan-1-one] yielded an IC50 (GABA-A receptor) of 0.015 µM.
`C[C@@]1(O)CC[C@H]2[C@H](CC[C@@H]3[C@@H]2CC[C@@]2(C)[C@H]3[C@@H]3C[C@@H]3[C@@H]2C(=O)Cn2nccn2)C1` [Example 7, 1-((2R,4aS,4bR,6aS,7S,7aS,8aR,8bR,8cR,10aR)-2-Hydroxy-2,6a-dimethyloctadecahydrocyclopropa[4,5]cyclopenta[1,2-a]phenanthren-7-yl)-2-(2H-1,2,3-triazol-2-yl)ethan-1-one] showed an IC50 (GABA-A receptor) of 0.0147 µM.
`C[C@@]1(O)CC[C@H]2[C@H](CC[C@@H]3[C@@H]2CC[C@@]2(C)[C@H]3[C@@H]3C[C@@H]3[C@@H]2C(=O)Cn2ccnn2)C1` [Example 8, 1-((2R,4aS,4bR,6aS,7S,7aS,8aR,8bR,8cR,10aR)-2-Hydroxy-2,6a-dimethyloctadecahydrocyclopropa[4,5]cyclopenta[1,2-a]phenanthren-7-yl)-2-(1H-1,2,3-triazol-1-yl)ethan-1-one] gave an IC50 (GABA-A receptor) of 0.042 µM.
`C[C@@]1(O)CC[C@H]2[C@H](CC[C@@H]3[C@@H]2CC[C@@]2(C)[C@H]3[C@@H]3C[C@@H]3[C@@H]2C(=O)Cn2cc(Cl)cn2)C1` [Example 18, 2-(4-Chloro-1H-pyrazol-1-yl)-1-((2R,4aS,4bR,6aS,7S,7aS,8aR,8bR,8cR,10aR)-2-hydroxy-2,6a-dimethyloctadecahydrocyclopropa[4,5]cyclopenta[1,2-a]phenanthren-7-yl)ethan-1-one] showed an IC50 (GABA-A receptor) of 0.0064 µM.
Molecule `C[C@@]1(O)CC[C@H]2[C@H](CC[C@@H]3[C@@H]2CC[C@@]2(C)[C@H]3[C@@H]3C[C@@H]3[C@@H]2C(=O)Cn2cc(C#N)c(C3CC3)n2)C1` [Example 33, 3-Cyclopropyl-1-(2-((2R,4aS,4bR,6aS,7S,7aS,8aR,8bR,8cR,10aR)-2-hydroxy-2,6a-dimethyloctadecahydrocyclopropa[4,5]cyclopenta[1,2-a]phenanthren-7-yl)-2-oxoethyl)-1H-pyrazole-4-carbonitrile] has an IC50 (GABA-A receptor) of 0.0183 µM.
Molecule `C[C@@]1(O)CC[C@H]2[C@H](CC[C@@H]3[C@@H]2CC[C@@]2(C)[C@H]3[C@@H]3C[C@@H]3[C@@H]2C(=O)Cn2ncc(C#N)c2C2CC2)C1` [Example 34, 5-Cyclopropyl-1-(2-((2R,4aS,4bR,6aS,7S,7aS,8aR,8bR,8cR,10aR)-2-hydroxy-2,6a-dimethyloctadecahydrocyclopropa[4,5]cyclopenta[1,2-a]phenanthren-7-yl)-2-oxoethyl)-1H-pyrazole-4-carbonitrile] has an IC50 (GABA-A receptor) of 0.0281 µM.
In the case of `Cc1nn(CC(=O)[C@H]2[C@H]3C[C@H]3[C@H]3[C@@H]4CC[C@@H]5C[C@](C)(O)CC[C@@H]5[C@H]4CC[C@@]32C)cc1C#N` [Example 37A, 1-(2-((2R,4aS,4bR,6aS,7S,7aS,8aR,8bR,8cR,10aR)-2-Hydroxy-2,6a-dimethyloctadecahydrocyclopropa[4,5]cyclopenta[1,2-a]phenanthren-7-yl)-2-oxoethyl)-3-methyl-1H-pyrazole-4-carbonitrile], the IC50 (GABA-A receptor) is reported as 0.0154 µM.
Work on `Cc1c(C#N)cnn1CC(=O)[C@H]1[C@H]2C[C@H]2[C@H]2[C@@H]3CC[C@@H]4C[C@](C)(O)CC[C@@H]4[C@H]3CC[C@@]21C` [Example 37B, 1-(2-((2R,4aS,4bR,6aS,7S,7aS,8aR,8bR,8cR,10aR)-2-Hydroxy-2,6a-dimethyloctadecahydrocyclopropa[4,5]cyclopenta[1,2-a]phenanthren-7-yl)-2-oxoethyl)-5-methyl-1H-pyrazole-4-carbonitrile] yielded an IC50 (GABA-A receptor) of 0.0154 µM.
`CC[C@@H]1C[C@H](C(=O)Cn2cc(C#N)cn2)[C@@]2(C)CC[C@H]3[C@@H](CC[C@@H]4C[C@](C)(O)CC[C@@H]43)[C@H]12` [Example 81, 1-(2-((3R,5R,8R,9R,10S,13S,14S,15R,17S)-15-Ethyl-3-hydroxy-3,13-dimethylhexadecahydro-1H-cyclopenta[a]phenanthren-17-yl)-2-oxoethyl)-1H-pyrazole-4-carbonitrile] showed an AUC(0-t) ([1]; brain tissue) of 1440 ng·h/mL, an AUC(0-inf) ([1]; brain tissue) of 2230 ng·h/mL and a half-life ([1]; brain tissue) of 5.59 h. It also gave an MRT ([1]; brain tissue) of 7.97 h, a Tmax ([1]; brain tissue) of 1 h and a Cmax ([1]; brain tissue) of 296 ng/mL. It also gave an AUC(0-t) ([1]; plasma) of 4640 ng·h/mL, an AUC(0-inf) ([1]; plasma) of 5920 ng·h/mL and a half-life ([1]; plasma) of 2.64 h. For the same molecule, the MRT ([1]; plasma) was 4.96 h, the Tmax ([1]; plasma) was 1 h and the Cmax ([1]; plasma) was 1150 ng/mL.
In the case of `C[C@@]1(O)CC[C@H]2[C@H](CC[C@@H]3[C@@H]2CC[C@@]2(C)[C@H]3[C@@H]3C[C@@H]3[C@@H]2C(=O)Cn2cc([N+](=O)[O-])cn2)C1` [Example 103, 1-((2R,4aS,4bR,6aS,7S,7aS,8aR,8bR,8cR,10aR)-2-Hydroxy-2,6a-dimethyloctadecahydrocyclopropa[4,5]cyclopenta[1,2-a]phenanthren-7-yl)-2-(4-nitro-1H-pyrazol-1-yl)ethan-1-one], the AUC(0-t) ([1]; brain tissue) is reported as 1680 ng·h/mL, the AUC(0-inf) ([1]; brain tissue) is reported as 1710 ng·h/mL and the half-life ([1]; brain tissue) is reported as 1.12 h. It also gave an MRT ([1]; brain tissue) of 2.07 h, a Tmax ([1]; brain tissue) of 1 h and a Cmax ([1]; brain tissue) of 626 ng/mL. It also gave an AUC(0-t) ([1]; plasma) of 1030 ng·h/mL, an AUC(0-inf) ([1]; plasma) of 1060 ng·h/mL and a half-life ([1]; plasma) of 1.19 h. It also gave an MRT ([1]; plasma) of 2.12 h, a Tmax ([1]; plasma) of 1 h and a Cmax ([1]; plasma) of 386 ng/mL.
